Assay results: ChEMBL document CHEMBL1201862, “PubChem BioAssay data set” (2004)
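Briefly, cells in 96-well plates were exposed to five compound concentrations for 48 h, and endpoints were estimated by linear interpolation. GI50: concentration for 50% inhibition of growth.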 Activity calls are given as the source filed them. Rule as the data show it: active = GI50 up to about 1.1 µM and inactive = higher.

What was measured:
Test in all cases: DTP human tumour cell line panel, 48 h
SK-MEL-5 = tested on: SK-MEL-5
DLD-1 = tested on: DLD-1
U-251 = tested on: U-251
OVCAR-4 = tested on: OVCAR-4
COLO 205 = tested on: COLO 205
HCT-116 = tested on: HCT-116
OVCAR-8 = tested on: OVCAR-8
SNB-75 = tested on: SNB-75
CAKI-1 = tested on: CAKI-1
EKVX = tested on: EKVX
SN12C = tested on: SN12C
SK-MEL-2 = tested on: SK-MEL-2
KM-20L2 = tested on: KM-20L2
SNB-78 = tested on: SNB-78
A549 = tested on: A549
SNB-19 = tested on: SNB-19
UACC-62 = tested on: UACC-62
NCI-H226 = tested on: NCI-H226
LOX IMVI = tested on: LOX IMVI
HCT-15 = tested on: HCT-15
HT-29 = tested on: HT-29
A498 = tested on: A498
NCI-H460 = tested on: NCI-H460
HOP-92 = tested on: HOP-92
OVCAR-5 = tested on: OVCAR-5
XF498 = tested on: XF498
CCRF-CEM = tested on: CCRF-CEM
DMS-114 = tested on: DMS-114
HOP-18 = tested on: HOP-18
NCI-H522 = tested on: NCI-H522
M19-MEL = tested on: M19-MEL
NCI-H23 = tested on: NCI-H23
UO-31 = tested on: UO-31
SW-620 = tested on: SW-620
RPMI-8226 = tested on: RPMI-8226
SF-295 = tested on: SF-295
HCC 2998 = tested on: HCC 2998
SF-268 = tested on: SF-268
SF-539 = tested on: SF-539
SK-OV-3 = tested on: SK-OV-3
MOLT-4 = tested on: MOLT-4
K562 = tested on: K562
HOP-62 = tested on: HOP-62
NCI/ADR-RES = tested on: NCI/ADR-RES
MCF7 = tested on: MCF7
DMS-273 = tested on: DMS-273
UACC-257 = tested on: UACC-257
KM12 = tested on: KM12
SK-MEL-28 = tested on: SK-MEL-28
RXF 393 = tested on: RXF 393
OVCAR-3 = tested on: OVCAR-3
HL-60 = tested on: HL-60
Malme-3M = tested on: Malme-3M
IGROV-1 = tested on: IGROV-1
ACHN = tested on: ACHN
SR = tested on: SR
M14 = tested on: M14
LXFL 529 = tested on: LXFL 529
TK-10 = tested on: TK-10
786-0 = tested on: 786-0

Compound: CC12CCC3C(CCC4(O)C=CCCC34C=O)C1(O)CC(O)C2c1ccc(=O)oc1 (configuration not stated)
- GI50 (SK-MEL-5): 0.0565 µM (active)
- GI50 (DLD-1): 0.0578 µM (active)
- GI50 (U-251): 0.08 µM (active)
- GI50 (OVCAR-4): 0.0611 µM (active)
- GI50 (COLO 205): 0.113 µM (active)
- GI50 (HCT-116): 0.0573 µM (active)
- GI50 (OVCAR-8): 0.0682 µM (active)
- GI50 (SNB-75): 0.0713 µM (active)
- GI50 (CAKI-1): 0.0578 µM (active)
- GI50 (EKVX): 0.0564 µM (active)
- GI50 (SN12C): 0.0519 µM (active)
- GI50 (SK-MEL-2): 0.111 µM (active)
- GI50 (KM-20L2): 0.0668 µM (active)
- GI50 (SNB-78): 0.0593 µM (active)
- GI50 (A549): 0.0504 µM (active)
- GI50 (SNB-19): 0.127 µM (active)
- GI50 (UACC-62): 0.076 µM (active)
- GI50 (NCI-H226): 0.148 µM (active)
- GI50 (LOX IMVI): 0.0662 µM (active)
- GI50 (HCT-15): 0.0658 µM
- GI50 (HT-29): 0.117 µM (active)
- GI50 (A498): 0.054 µM (active)
- GI50 (NCI-H460): 0.0527 µM (active)
- GI50 (HOP-92): 0.105 µM (active)
- GI50 (OVCAR-5): 0.191 µM (active)
- GI50 (XF498): 0.0873 µM (active)
- GI50 (CCRF-CEM): 0.0526 µM (active)
- GI50 (DMS-114): < 0.05 µM (active)
- GI50 (HOP-18): 0.0679 µM (active)
- GI50 (NCI-H522): < 0.05 µM (active)
- GI50 (M19-MEL): 0.0851 µM (active)
- GI50 (NCI-H23): 0.0512 µM (active)
- GI50 (UO-31): 0.0685 µM (active)
- GI50 (SW-620): 0.0741 µM (active)
- GI50 (RPMI-8226): 0.0697 µM (active)
- GI50 (SF-295): 0.0551 µM (active)
- GI50 (HCC 2998): 0.117 µM (active)
- GI50 (SF-268): < 0.05 µM (active)
- GI50 (SF-539): < 0.05 µM (active)
- GI50 (SK-OV-3): 0.109 µM (active)
- GI50 (MOLT-4): < 0.05 µM (active)
- GI50 (K562): 0.0741 µM (active)
- GI50 (HOP-62): 0.0556 µM (active)
- GI50 (NCI/ADR-RES): 0.0679 µM (active)
- GI50 (MCF7): 0.0773 µM (active)
- GI50 (DMS-273): < 0.05 µM (active)
- GI50 (UACC-257): 0.104 µM (active)
- GI50 (KM12): 0.0792 µM (active)
- GI50 (SK-MEL-28): 0.134 µM (active)
- GI50 (RXF 393): < 0.05 µM (active)
- GI50 (OVCAR-3): 0.0625 µM (active)
- GI50 (HL-60): 0.0665 µM (active)
- GI50 (Malme-3M): 0.0521 µM (active)
- GI50 (IGROV-1): 0.0681 µM (active)

Compound: COC(=O)C1=C(c2cc(OC)c(OC)c(OC)c2)OC(c2cc(OC)c(OC)c(OC)c2)C1 (configuration not stated)
- GI50 (SK-MEL-5): 16 µM (inactive)
- GI50 (DLD-1): 21.9 µM (inactive)
- GI50 (U-251): 20.5 µM (inactive)
- GI50 (OVCAR-4): 12 µM (inactive)
- GI50 (COLO 205): 16.4 µM (inactive)
- GI50 (HCT-116): 17 µM (inactive)
- GI50 (OVCAR-8): 32.1 µM (inactive)
- GI50 (SNB-75): 23.7 µM (inactive)
- GI50 (CAKI-1): 21.8 µM (inactive)
- GI50 (SN12C): 19.2 µM (inactive)
- GI50 (KM-20L2): 22.5 µM (inactive)
- GI50 (SNB-78): 51.8 µM (inactive)
- GI50 (A549): 36.5 µM (inactive)
- GI50 (SNB-19): 19.5 µM (inactive)
- GI50 (ACHN): 20.2 µM (inactive)
- GI50 (UACC-62): 12.8 µM (inactive)
- GI50 (NCI-H226): 17.1 µM (inactive)
- GI50 (LOX IMVI): 17.9 µM (inactive)
- GI50 (HCT-15): 22.7 µM
- GI50 (HT-29): 24.3 µM (inactive)
- GI50 (A498): 24.1 µM (inactive)
- GI50 (NCI-H460): 28.4 µM (inactive)
- GI50 (HOP-92): 10.7 µM (inactive)
- GI50 (OVCAR-5): 33.3 µM (inactive)
- GI50 (XF498): 24.4 µM (inactive)
- GI50 (CCRF-CEM): 24.1 µM (inactive)
- GI50 (DMS-114): 30.7 µM (inactive)
- GI50 (HOP-18): 19.5 µM (inactive)
- GI50 (M19-MEL): 26.7 µM (inactive)
- GI50 (NCI-H23): 19.5 µM (inactive)
- GI50 (UO-31): 12.3 µM (inactive)
- GI50 (SW-620): 34.4 µM (inactive)
- GI50 (RPMI-8226): 23.1 µM (inactive)
- GI50 (SF-295): 20.5 µM (inactive)
- GI50 (HCC 2998): 20.1 µM (inactive)
- GI50 (SF-268): 46.2 µM (inactive)
- GI50 (SF-539): 34.4 µM (inactive)
- GI50 (SK-OV-3): 25.6 µM (inactive)
- GI50 (MOLT-4): 22.9 µM (inactive)
- GI50 (K562): 28.8 µM (inactive)
- GI50 (HOP-62): 37.8 µM (inactive)
- GI50 (SR): 18 µM (inactive)
- GI50 (DMS-273): 22.5 µM (inactive)
- GI50 (M14): 20.5 µM (inactive)
- GI50 (UACC-257): 23.9 µM (inactive)
- GI50 (LXFL 529): 22.4 µM (inactive)
- GI50 (TK-10): 25 µM (inactive)
- GI50 (KM12): 17.7 µM (inactive)
- GI50 (SK-MEL-28): 53.1 µM (inactive)
- GI50 (RXF 393): 33.9 µM (inactive)
- GI50 (OVCAR-3): 22.1 µM (inactive)
- GI50 (786-0): 24.8 µM (inactive)
- GI50 (Malme-3M): 31.3 µM (inactive)
- GI50 (IGROV-1): 20.1 µM (inactive)

Compound: O=c1ccc2ccccc2o1 [COUMARIN]
- GI50 (DLD-1): > 100 µM (inactive)
- GI50 (U-251): > 100 µM (inactive)
- GI50 (OVCAR-4): > 100 µM (inactive)
- GI50 (COLO 205): > 100 µM (inactive)
- GI50 (HCT-116): > 100 µM (inactive)
- GI50 (OVCAR-8): > 100 µM (inactive)
- GI50 (SNB-75): > 100 µM (inactive)
- GI50 (EKVX): > 100 µM (inactive)
- GI50 (SN12C): > 100 µM (inactive)
- GI50 (SK-MEL-2): > 100 µM (inactive)
- GI50 (KM-20L2): > 100 µM (inactive)
- GI50 (SNB-78): > 100 µM (inactive)
- GI50 (A549): > 100 µM (inactive)
- GI50 (SNB-19): > 100 µM (inactive)
- GI50 (ACHN): > 100 µM (inactive)
- GI50 (UACC-62): > 100 µM (inactive)
- GI50 (NCI-H226): > 100 µM (inactive)
- GI50 (LOX IMVI): > 100 µM (inactive)
- GI50 (HCT-15): > 100 µM
- GI50 (HT-29): > 100 µM (inactive)
- GI50 (A498): > 100 µM (inactive)
- GI50 (NCI-H460): > 100 µM (inactive)
- GI50 (HOP-92): > 100 µM (inactive)
- GI50 (OVCAR-5): > 100 µM (inactive)
- GI50 (XF498): > 100 µM (inactive)
- GI50 (CCRF-CEM): > 100 µM (inactive)
- GI50 (DMS-114): > 100 µM (inactive)
- GI50 (HOP-18): > 100 µM (inactive)
- GI50 (NCI-H522): > 100 µM (inactive)
- GI50 (M19-MEL): > 100 µM (inactive)
- GI50 (NCI-H23): > 100 µM (inactive)
- GI50 (UO-31): > 100 µM (inactive)
- GI50 (SW-620): > 100 µM (inactive)
- GI50 (RPMI-8226): > 100 µM (inactive)
- GI50 (SF-295): > 100 µM (inactive)
- GI50 (HCC 2998): > 100 µM (inactive)
- GI50 (SF-268): > 100 µM (inactive)
- GI50 (SF-539): > 100 µM (inactive)
- GI50 (SK-OV-3): > 100 µM (inactive)
- GI50 (MOLT-4): > 100 µM (inactive)
- GI50 (K562): > 100 µM (inactive)
- GI50 (HOP-62): > 100 µM (inactive)
- GI50 (M14): > 100 µM (inactive)
- GI50 (UACC-257): > 100 µM (inactive)
- GI50 (LXFL 529): > 100 µM (inactive)
- GI50 (TK-10): > 100 µM (inactive)
- GI50 (KM12): > 100 µM (inactive)
- GI50 (SK-MEL-28): > 100 µM (inactive)
- GI50 (RXF 393): > 100 µM (inactive)
- GI50 (OVCAR-3): > 100 µM (inactive)
- GI50 (HL-60): > 100 µM (inactive)
- GI50 (786-0): > 100 µM (inactive)
- GI50 (Malme-3M): > 100 µM (inactive)
- GI50 (IGROV-1): > 100 µM (inactive)
